Eight compounds from ChEMBL document CHEMBL1151021, “Synthesis of potent 6-oxo and 9-fluoro-PGE1-derivatives and their biological properties” (Bioorg Med Chem Lett, 1992) can be followed below.

Activity calls are given as the source filed them. No cut-off for these calls is given here.

For assay [1], the target named is Prostacyclin receptor (Homo sapiens) (UniProt P43119). Kind of assay: The compound was evaluated for the affinity towards Prostaglandin I2 receptor; not parallel.
The nature of assay [2]: Concentration required for the inhibition of blood platelet aggregation induced by ADP. In kind it is functional.
Assay [3] is described as follows: The compound was evaluated for the affinity towards PGE-2 receptor.
For assay [4], the target named is Prostacyclin receptor (Homo sapiens) (UniProt P43119). Kind of assay: The compound was evaluated for the affinity towards Prostaglandin I2 receptor.
Assay [5] addresses T1, Prostaglandin D2 receptor (Homo sapiens) (UniProt Q13258).
T1 sequence (whole entry): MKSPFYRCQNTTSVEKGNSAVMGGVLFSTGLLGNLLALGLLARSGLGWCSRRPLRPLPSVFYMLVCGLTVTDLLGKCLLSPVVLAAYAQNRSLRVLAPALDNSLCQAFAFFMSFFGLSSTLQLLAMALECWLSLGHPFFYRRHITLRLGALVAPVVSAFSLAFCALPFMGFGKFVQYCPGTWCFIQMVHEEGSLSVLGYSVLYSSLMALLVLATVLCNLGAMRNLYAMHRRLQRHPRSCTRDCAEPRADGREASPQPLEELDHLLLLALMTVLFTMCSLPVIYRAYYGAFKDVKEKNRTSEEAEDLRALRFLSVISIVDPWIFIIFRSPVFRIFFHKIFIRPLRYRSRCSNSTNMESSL
Kind of assay: The compound was evaluated for the affinity towards PGD-2 receptor.

The nature of assay [6]: The compound was evaluated for the affinity towards PGE-2 receptor; no competition.
Assay [7] addresses Prostacyclin receptor (Homo sapiens) (UniProt P43119). Put plainly: The compound was evaluated for the affinity towards Prostaglandin I2 receptor; no competition.

Sequence of Prostacyclin receptor (Homo sapiens) (P43119 whole entry): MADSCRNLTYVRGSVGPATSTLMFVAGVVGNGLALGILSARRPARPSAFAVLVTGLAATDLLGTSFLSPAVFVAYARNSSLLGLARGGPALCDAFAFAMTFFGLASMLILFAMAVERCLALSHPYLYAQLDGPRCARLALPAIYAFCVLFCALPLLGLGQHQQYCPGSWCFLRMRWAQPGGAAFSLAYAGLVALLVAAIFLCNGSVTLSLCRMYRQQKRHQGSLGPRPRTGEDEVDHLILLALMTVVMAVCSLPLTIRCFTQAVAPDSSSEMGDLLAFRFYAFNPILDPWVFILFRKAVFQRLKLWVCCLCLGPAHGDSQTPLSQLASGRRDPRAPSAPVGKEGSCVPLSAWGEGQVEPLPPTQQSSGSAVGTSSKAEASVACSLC

A word on the IC50: it is the midpoint of a concentration-inhibition curve. A low value points to greater potency. As for `CC#CC[C@H](C)[C@H](O)/C=C/[C@H]1[C@H](O)CC(=O)[C@@H]1CC(=O)CCCCC(=O)O`, the KF in assay [1] and in assay [3] was 40 each time. Besides, it took 1 nM to reach half-maximal inhibition in assay [2] (IC50).

Take `CCC#CC[C@H](C)[C@H](O)C#C[C@@H]1[C@@H](CC(=O)CCCCC(=O)O)[C@H](F)C[C@H]1O`: the KF in assay [1] is 32; in assay [3], 700. Half-maximal inhibition in assay [2] (IC50) required 20 nM.

With `CCC#CC[C@H](C)[C@H](O)C#C[C@H]1[C@H](O)CC(=O)[C@@H]1CC(=O)CCCCC(=O)O`, the figures for the KF in assay [4] and in assay [3] were 5 and 7.5, respectively. It took 0.09 nM to reach half-maximal inhibition in assay [2] (IC50).

Regarding `CCCCC[C@H](O)/C=C/[C@H]1[C@H](O)CC(=O)[C@@H]1CC(=O)CCCCC(=O)O`, the KF in assay [4] worked out at 129; in assay [3] it was 7.1. This compound gave an IC50 in assay [2] of 7 nM.

As for `CC#CC[C@H](C)[C@H](O)/C=C/[C@@H]1[C@@H](CC(=O)CCCCC(=O)O)[C@H](F)C[C@H]1O`, the KF in assay [1] was 200. The compound also returned an IC50 in assay [2] of 100 nM.

Consider `CC#CCC(C)[C@H](O)/C=C/[C@H]1[C@H](O)CC(=O)[C@@H]1CC(=O)CCCCC(=O)O` (some centres undefined), for which the KF in assay [4] is 60; in assay [5], 600; in assay [3], 140. For the same compound, in assay [2], inhibition was half-maximal at 1.6 nM (IC50).

As for `O=C(O)CCCCC(=O)C[C@H]1C(=O)C[C@@H](O)[C@@H]1/C=C/[C@@H](O)C1CCCCC1`, the KF in assay [4] worked out at 58; in assay [5] it was 70. The IC50 in assay [2] stood at 3 nM. Moreover, the KF entry in assay [6] is “inactive”.

`CC#CC[C@H](C)[C@H](O)/C=C/[C@@H]1[C@@H](CC(=O)CCCCC(=O)O)[C@@H](F)C[C@H]1O`: the KF result in assay [7] was “inactive”. This compound also had an IC50 in assay [2] of 1000 nM.
